Each structure is given as a SMILES string.

This note sets out measurements from patent publication US20060068503A1, “Solid support membranes for ion channel arrays and sensors: application ro rapid screening of pharmacological compounds” (priority 2004, published 2006).

The target of assay [1] is T1, Kv1.5 K+ channels reconstituted on the SSM (Homo sapiens, UniProt P22460).
T1 construct: expressed in transfected cells; host or cells: Ltk- cells (mouse fibroblasts), stably transfected, expression induced with 2 uM dexamethasone
The assay can be described thus: Kv1.5 K+ channel current on solid supported membrane (SSM). The following applies: for IC50: SSM-reconstituted channels, -80 mV, n=3, read-out: half-maximal inhibition of Kv1.5 K+ channel current, IC50. It counts as biochemical. On the procedure:
An Ltk-cell line (mouse fibroblast cells) stably overexpressing Kv1.5 K+ channels under control of a dexamethasone promoter is used to prepare plasma membrane vesicles. Expression of Kv1.5 is induced in Ltk-cells by addition of dexamethasone to the medium. The dexamethasone-specific induction of channel expression is totally specific for Kv1.5 channels. Cells are grown in 2 μM dexamethasone for 24 hr prior to use. The cells are centrifuged for 5 min at 1000 rpm and resuspended in 1.0 ml of 20 mM HEPES (pH 7.5), 20 mM NaCl, 100 mM KCl, 1.0 mM EDTA, 0.02% NaN3, 1 mM PMSF, 10 μg/μl leupeptin, and 50 μg/μl aprotinin. After freeze-thawing twice, the membrane fragments/vesicles are collected following centrifugation at 12,000 g for 20 min at 4 °C. Membrane vesicles are also prepared from uninduced Ltk-cells (no dexamethasone incubation) transfected with Kv1.5 K+ channel cDNA and from non-transfected Lkt-cells.
Glass slides are first plated with chromium (5 nm), and then gold (150 nm). The slide is then immersed in ethanol containing 1% octadecanethiol (w/w) for 48 hr to attach alkyl thiol groups. After cleaning the gold plated slide with anhydrous isopropanol, epoxy resin is applied to the surface of the thiol-treated gold. Defects in the epoxy resin coating are used as the experimental chamber after coating the device with a lipid monolayer. […]
Membrane vesicles containing Kv1.5 K+ channels are added to the lipid coated wells containing 125 mM KCl/10 mM K-HEPES pH 7.4. Currents are measured with an HS-2A headstage and Gene Clamp 500 amplifier (Axon Instruments). […] Voltages ranging from −80 mV to +70 mV are applied in 10 mV increments for 200 msec, and electrical currents are recorded. […] Cation selectivity is measured by removing K+ from the medium and replacing it with Na+. Currents are first measured with K+ present. SSMs are then washed with K+-free, Na+-containing medium and currents were measured with Na+ present. Currents with K+ present are re-measured. […]

The target of assay [2] is T2, Kv1.5 K+ channel (Homo sapiens, UniProt P22460).
T2 construct: expressed in transfected cells; host or cells: Ltk- cells (mouse fibroblasts), stably transfected, expression induced with 2 uM dexamethasone
The assay can be described thus: Whole cell patch clamp of dexamethasone-induced Kv1.5-transfected Ltk-cells. The following applies: Ltk-cells overexpressing Kv1.5, whole cell patch clamp. It counts as cell-based. The method, then:
Whole-cell Kv1.5 current recordings are made at room temperature via the gigaseal patch clamp technique using an Axopatch-1D amplifier (Axon Instruments, Foster City, Calif.). Ltk-cells overexpressing Kv1.5 channels are cultured for 24-72 hr, induced to express Kv1.5 channels by 24 hr incubation with 2 μM dexamethasone prior to use for patch clamp studies. Small, spherical cells approximately 10 microns in diameter are used for all patch recordings. Electrodes are made from TW-150F glass capillary tubes (World Precision Instruments, New Haven Conn.) and had resistances of 1.5-3.0 megohms when filled with internal solution containing: 110 Mm KCl, 5 mM K2ATP, 5 mM K4BAPTA, 1 mM MgCl2 and 10 mM HEPES, adjusted to pH 7.2 with KOH. The external solution contained: 130 mM NaCl, 4 mM KCl, 1.8 mM CaCl2 1 mM MgCl2, 10 mM HEPES, 10 mM glucose, adjusted to pH 7.4 with NaOH. Series resistance is compensated following rupture of the seal. Currents are sampled at 1 KHZ and filtered at 500 Hz. Cells are pulsed to +60 mV every 5 sec from a holding potential of −70 mV in 20 mV increments. […] Whole cell patch data are analyzed using Clampfit 8.0 in pCLAMP software (Axon Instruments). IC50 values for compounds are determined by nonlinear regression analysis using GraphPad Prism software (San Diego, Calif.).

T1 sequence (P22460 whole entry): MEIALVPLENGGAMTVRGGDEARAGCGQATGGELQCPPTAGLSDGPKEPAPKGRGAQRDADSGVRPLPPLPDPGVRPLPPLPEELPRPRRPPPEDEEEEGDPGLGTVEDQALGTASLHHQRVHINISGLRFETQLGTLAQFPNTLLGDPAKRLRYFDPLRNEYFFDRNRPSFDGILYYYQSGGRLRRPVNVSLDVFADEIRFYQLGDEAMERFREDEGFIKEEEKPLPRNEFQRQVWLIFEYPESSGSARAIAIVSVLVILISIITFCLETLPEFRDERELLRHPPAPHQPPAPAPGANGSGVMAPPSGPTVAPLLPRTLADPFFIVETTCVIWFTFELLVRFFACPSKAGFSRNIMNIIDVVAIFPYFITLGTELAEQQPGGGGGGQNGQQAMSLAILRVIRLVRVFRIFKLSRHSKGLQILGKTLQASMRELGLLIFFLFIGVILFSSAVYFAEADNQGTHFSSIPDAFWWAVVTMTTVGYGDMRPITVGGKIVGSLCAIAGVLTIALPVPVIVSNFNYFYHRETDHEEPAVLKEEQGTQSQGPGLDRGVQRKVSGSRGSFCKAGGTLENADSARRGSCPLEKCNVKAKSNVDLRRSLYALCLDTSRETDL
T2 sequence (P22460 whole entry): as above

By IC50 is commonly meant the concentration that inhibits the measured activity by half. With `CCc1ccc(S(=O)(=O)N[C@H]2c3cc(NC(=O)c4cccc(OC)c4)ccc3C[C@@H]2O)cc1` [Compound A, N-[(2S,3S)-3-[[(4-ethylphenyl)sulfonyl]amino]-2,3-dihydro-2-hydroxy-1H-inden-5yl]-3-methoxybenzamide], in assay [1] (100 nM, holding potentials outside the range of ±20 mV), the “effect on current at varying holding potentials” value is listed as “current decreased”. For the same molecule, the half-inhibitory concentration (IC50) in assay [1] turned out to be 218 nM; in assay [2] it was 170 nM.
Turning to `COc1ccc(CCN2C(=O)CSC2c2ccc(C)c(C)c2)cc1` (centres unmarked) [Compound B, 2-(3,4-dimethyphenyl)-3-[2-(4-methoxyphenyl)ethyl]-thiazolidin-4-one], the IC50 turned out to be 265 nM in assay [1] and 137 nM in assay [2].
